According to the NIST ThermoML archive (doi:10.1007/s10765-019-2573-6):
± gives the expanded uncertainty stated by the source.

Details: Liquid, Vibrating wire viscometry

CCCOC(=O)CCCCC(=O)OCCC [dipropyl hexanedioate]
viscosity [mPa·s]
Details	100 kPa	1000 kPa	5000 kPa	10000 kPa	15000 kPa	20000 kPa	30000 kPa	40000 kPa
283.15 K	6.153 ± 0.14	6.217 ± 0.14	6.536 ± 0.15	6.943 ± 0.16	7.36 ± 0.17	7.811 ± 0.18	8.759 ± 0.2	9.76 ± 0.22
293.14 K	–	4.65 ± 0.11	–	–	–	–	–	–
293.15 K	4.599 ± 0.11	–	4.87 ± 0.11	5.155 ± 0.12	5.456 ± 0.12	5.773 ± 0.13	6.429 ± 0.15	7.169 ± 0.16
303.15 K	3.567 ± 0.082	3.604 ± 0.084	3.766 ± 0.086	3.983 ± 0.091	4.205 ± 0.096	4.434 ± 0.1	4.938 ± 0.11	5.457 ± 0.12
313.15 K	2.854 ± 0.065	2.889 ± 0.067	3.014 ± 0.069	3.178 ± 0.073	3.347 ± 0.076	3.519 ± 0.08	3.899 ± 0.089	4.293 ± 0.098
323.14 K	–	–	–	2.592 ± 0.059	–	–	–	–
323.15 K	2.34 ± 0.054	2.364 ± 0.055	2.464 ± 0.056	–	2.725 ± 0.062	2.867 ± 0.066	3.157 ± 0.072	3.475 ± 0.079
333.15 K	1.954 ± 0.045	1.973 ± 0.046	2.058 ± 0.047	2.163 ± 0.05	2.275 ± 0.052	2.391 ± 0.055	2.624 ± 0.06	2.875 ± 0.066
343.15 K	1.658 ± 0.038	1.673 ± 0.039	1.744 ± 0.04	1.835 ± 0.042	1.928 ± 0.044	2.019 ± 0.046	2.216 ± 0.051	2.42 ± 0.056
353.15 K	1.426 ± 0.033	1.44 ± 0.034	1.5 ± 0.035	1.577 ± 0.036	1.654 ± 0.038	1.736 ± 0.04	1.9 ± 0.044	2.074 ± 0.048
363.15 K	1.242 ± 0.029	1.253 ± 0.029	1.306 ± 0.03	1.371 ± 0.032	1.439 ± 0.033	1.508 ± 0.035	1.649 ± 0.038	1.798 ± 0.041

CCOC(=O)CCCCC(=O)OCC [diethyl hexanedioate]
viscosity [mPa·s]
Details	100 kPa	1000 kPa	5000 kPa	10000 kPa	15000 kPa	20000 kPa	30000 kPa	40000 kPa
283.15 K	4.541 ± 0.096	4.59 ± 0.097	4.792 ± 0.1	5.062 ± 0.11	5.332 ± 0.11	5.622 ± 0.12	–	6.887 ± 0.14
283.16 K	–	–	–	–	–	–	6.223 ± 0.13	–
293.15 K	3.486 ± 0.074	3.521 ± 0.077	3.672 ± 0.078	3.868 ± 0.082	4.075 ± 0.086	4.278 ± 0.09	4.722 ± 0.1	5.195 ± 0.11
303.15 K	2.766 ± 0.059	2.792 ± 0.06	2.912 ± 0.062	3.063 ± 0.065	3.207 ± 0.068	3.361 ± 0.071	3.696 ± 0.078	4.042 ± 0.085
313.15 K	2.252 ± 0.048	–	2.362 ± 0.05	2.478 ± 0.053	2.597 ± 0.055	2.721 ± 0.058	2.978 ± 0.063	3.251 ± 0.069
313.16 K	–	2.272 ± 0.049	–	–	–	–	–	–
323.15 K	1.87 ± 0.04	1.886 ± 0.041	1.961 ± 0.042	2.054 ± 0.044	2.151 ± 0.046	2.248 ± 0.048	2.461 ± 0.052	2.68 ± 0.057
333.15 K	1.579 ± 0.034	1.592 ± 0.034	1.653 ± 0.035	1.734 ± 0.037	1.814 ± 0.039	1.896 ± 0.04	2.066 ± 0.044	2.249 ± 0.048
343.15 K	1.354 ± 0.029	1.367 ± 0.03	1.419 ± 0.03	1.487 ± 0.032	1.555 ± 0.033	1.624 ± 0.035	1.765 ± 0.038	1.917 ± 0.041
353.14 K	–	1.187 ± 0.026	–	–	–	–	–	–
353.15 K	1.177 ± 0.025	–	1.233 ± 0.027	1.292 ± 0.028	1.351 ± 0.029	1.411 ± 0.03	1.534 ± 0.033	1.662 ± 0.036
363.15 K	1.032 ± 0.023	1.041 ± 0.023	1.081 ± 0.024	1.133 ± 0.025	1.183 ± 0.026	1.236 ± 0.027	1.343 ± 0.029	1.453 ± 0.031

CCCCOC(=O)CCCCC(=O)OCCCC [dibutyl hexanedioate]
viscosity [mPa·s]
Details	100 kPa	1000 kPa	5000 kPa	10000 kPa	15000 kPa	20000 kPa	30000 kPa	40000 kPa
283.15 K	–	–	–	–	8.961 ± 0.19	–	10.62 ± 0.22	11.95 ± 0.25
283.16 K	7.383 ± 0.16	7.493 ± 0.16	–	–	–	9.508 ± 0.2	–	–
283.17 K	–	–	7.896 ± 0.17	8.407 ± 0.18	–	–	–	–
293.14 K	–	5.566 ± 0.12	–	–	6.585 ± 0.14	–	–	8.724 ± 0.18
293.15 K	5.499 ± 0.12	–	5.84 ± 0.12	6.196 ± 0.13	–	6.982 ± 0.15	7.808 ± 0.16	–
303.15 K	4.237 ± 0.09	–	4.49 ± 0.095	4.759 ± 0.1	5.029 ± 0.11	5.323 ± 0.11	5.933 ± 0.12	6.592 ± 0.14
303.16 K	–	4.288 ± 0.094	–	–	–	–	–	–
313.15 K	3.375 ± 0.072	3.411 ± 0.074	3.566 ± 0.075	3.769 ± 0.08	3.979 ± 0.084	4.197 ± 0.089	4.66 ± 0.098	5.153 ± 0.11
323.15 K	–	2.774 ± 0.06	2.9 ± 0.062	3.061 ± 0.065	3.224 ± 0.068	3.393 ± 0.072	3.754 ± 0.079	4.146 ± 0.088
323.16 K	2.746 ± 0.058	–	–	–	–	–	–	–
333.14 K	–	–	–	2.54 ± 0.054	–	–	–	–
333.15 K	2.282 ± 0.049	2.304 ± 0.05	2.407 ± 0.051	–	–	2.814 ± 0.06	3.106 ± 0.066	3.412 ± 0.072
333.16 K	–	–	–	–	2.675 ± 0.057	–	–	–
343.15 K	1.93 ± 0.041	1.95 ± 0.042	2.035 ± 0.043	2.144 ± 0.046	2.257 ± 0.048	2.37 ± 0.05	2.612 ± 0.055	2.859 ± 0.061
353.15 K	1.655 ± 0.035	1.672 ± 0.036	1.746 ± 0.037	1.839 ± 0.039	1.933 ± 0.041	2.031 ± 0.043	2.23 ± 0.047	2.438 ± 0.052
363.15 K	1.437 ± 0.031	1.452 ± 0.031	–	–	1.675 ± 0.036	1.757 ± 0.038	1.93 ± 0.041	2.108 ± 0.045
363.16 K	–	–	–	1.594 ± 0.034	–	–	–	–
363.17 K	–	–	1.513 ± 0.032	–	–	–	–	–

COC(=O)CCCCC(=O)OC [dimethyl 1,6-hexanedioate]
viscosity [mPa·s]
Details	100 kPa	1000 kPa	5000 kPa	10000 kPa	15000 kPa	20000 kPa	30000 kPa	40000 kPa
293.15 K	–	–	3.46 ± 0.073	3.623 ± 0.077	3.787 ± 0.08	3.958 ± 0.084	4.333 ± 0.091	4.722 ± 0.1
293.17 K	3.302 ± 0.07	3.331 ± 0.071	–	–	–	–	–	–
303.15 K	–	–	2.735 ± 0.058	2.854 ± 0.06	–	–	–	–
303.16 K	–	–	–	–	2.985 ± 0.063	3.115 ± 0.066	3.384 ± 0.072	3.672 ± 0.078
303.17 K	2.617 ± 0.056	2.637 ± 0.057	–	–	–	–	–	–
313.14 K	–	2.151 ± 0.046	–	–	2.422 ± 0.051	2.522 ± 0.053	2.727 ± 0.058	–
313.15 K	2.129 ± 0.045	–	2.227 ± 0.047	2.326 ± 0.049	–	–	–	2.955 ± 0.063
323.14 K	–	–	–	–	–	–	–	2.432 ± 0.052
323.15 K	1.774 ± 0.038	1.789 ± 0.039	1.85 ± 0.04	1.928 ± 0.041	2.008 ± 0.043	2.089 ± 0.044	2.254 ± 0.048	–
333.14 K	–	–	–	–	–	–	–	2.046 ± 0.044
333.15 K	1.503 ± 0.032	1.514 ± 0.033	1.565 ± 0.034	1.629 ± 0.035	1.696 ± 0.036	1.764 ± 0.038	1.903 ± 0.041	–
343.15 K	1.293 ± 0.028	1.303 ± 0.028	1.346 ± 0.029	1.401 ± 0.03	1.457 ± 0.031	1.514 ± 0.032	1.63 ± 0.035	1.752 ± 0.037
353.15 K	1.128 ± 0.024	–	1.174 ± 0.025	1.221 ± 0.026	1.269 ± 0.027	1.317 ± 0.028	1.417 ± 0.03	1.52 ± 0.033
353.16 K	–	1.136 ± 0.025	–	–	–	–	–	–
363.13 K	–	–	–	–	1.115 ± 0.024	1.157 ± 0.025	–	–
363.15 K	0.9897 ± 0.022	0.9971 ± 0.022	1.03 ± 0.022	1.072 ± 0.023	–	–	1.244 ± 0.027	1.332 ± 0.029
